# pIC50: −log10 of the molar value.
# System: 485368-065-R3-J5-PDC spheroids with HUVEC/MSC, viability
# Experiment: Anticancer human tumor 485368-065-R3-J5-PDC patient-derived pancreatic carcinoma cell line growth inhibition [RAS]
# Conditions: for pIC50: curve of first compound; for viability, T/C: stronger effect = lower value
# In short: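 Agents were tested in combination matrices in half-log decrements from a top concentration at or near clinical Cmax (10 microM if undetermined). Targets were multi-cell spheroids of tumour lines plus HUVEC and MSC stromal cells.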
# [1] = second compound 0.000949 µM, first compound 0.0316 µM
# [2] = second compound 0.000949 µM, first compound 0.1 µM
# [3] = second compound 0.000949 µM, first compound 0.316 µM
# [4] = second compound 0.000949 µM, first compound 1 µM
# [5] = second compound 0.000949 µM, first compound 3.16 µM
# [6] = second compound 0.000949 µM, first compound 10 µM
# [7] = second compound 0.003 µM, first compound 0.0316 µM
# [8] = second compound 0.003 µM, first compound 0.1 µM
# [9] = second compound 0.003 µM, first compound 0.316 µM
# [10] = second compound 0.003 µM, first compound 1 µM
# [11] = second compound 0.003 µM, first compound 3.16 µM
# [12] = second compound 0.003 µM, first compound 10 µM
# [13] = second compound 0.00949 µM, first compound 0.0316 µM
# [14] = second compound 0.00949 µM, first compound 0.1 µM
# [15] = second compound 0.00949 µM, first compound 0.316 µM
# [16] = second compound 0.00949 µM, first compound 1 µM
# [17] = second compound 0.00949 µM, first compound 3.16 µM
# [18] = second compound 0.00949 µM, first compound 10 µM
# [19] = second compound 0.03 µM, first compound 0.0316 µM
# [20] = second compound 0.03 µM, first compound 0.1 µM
# [21] = second compound 0.03 µM, first compound 0.316 µM
# [22] = second compound 0.03 µM, first compound 1 µM
# [23] = second compound 0.03 µM, first compound 3.16 µM
# [24] = second compound 0.03 µM, first compound 10 µM
# [25] = second compound 0.0949 µM, first compound 0.0316 µM
# [26] = second compound 0.0949 µM, first compound 0.1 µM
# [27] = second compound 0.0949 µM, first compound 0.316 µM
# [28] = second compound 0.0949 µM, first compound 1 µM
# [29] = second compound 0.0949 µM, first compound 3.16 µM
# [30] = second compound 0.0949 µM, first compound 10 µM
# [31] = second compound 0.3 µM, first compound 0.0316 µM
# [32] = second compound 0.3 µM, first compound 0.1 µM
# [33] = second compound 0.3 µM, first compound 0.316 µM
# [34] = second compound 0.3 µM, first compound 1 µM
# [35] = second compound 0.3 µM, first compound 3.16 µM
# [36] = second compound 0.3 µM, first compound 10 µM
# 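Further: spheroids exposed to agents for seven days before readout.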
smiles,measurement,setting,value
CC1(O)CCCC1n1c(=O)c(C(F)F)cc2cnc(NC3CCN(S(C)(=O)=O)CC3)nc21 (stereo unspecified) + CCn1c(-c2cc(N3CCN(C)CC3)cnc2C(C)OC)c2c3cc(ccc31)-c1csc(n1)CC(NC(=O)C1CC1C)C(=O)N1CCCC(N1)C(=O)OCC(C)(C)C2,pIC50,second compound 0.000949 µM,> 7.50
same,pIC50,second compound 0.003 µM,> 7.50
same,pIC50,second compound 0.00949 µM,> 7.50
same,pIC50,second compound 0.03 µM,> 7.50
same,pIC50,second compound 0.0949 µM,> 7.50
same,pIC50,second compound 0.3 µM,> 7.50
same,"viability, T/C",[1],32.3%
same,"viability, T/C",[2],24.5%
same,"viability, T/C",[3],18.9%
same,"viability, T/C",[4],21.9%
same,"viability, T/C",[5],27.9%
same,"viability, T/C",[6],14%
same,"viability, T/C",[7],18.5%
same,"viability, T/C",[8],15.5%
same,"viability, T/C",[9],13.4%
same,"viability, T/C",[10],11.9%
same,"viability, T/C",[11],14.7%
same,"viability, T/C",[12],9.44%
same,"viability, T/C",[13],14.6%
same,"viability, T/C",[14],12.9%
same,"viability, T/C",[15],11.6%
same,"viability, T/C",[16],10.3%
same,"viability, T/C",[17],11%
same,"viability, T/C",[18],8.01%
same,"viability, T/C",[19],11.8%
same,"viability, T/C",[20],9.04%
same,"viability, T/C",[21],9.94%
same,"viability, T/C",[22],9.99%
same,"viability, T/C",[23],9.98%
same,"viability, T/C",[24],8.86%
same,"viability, T/C",[25],7.96%
same,"viability, T/C",[26],8.33%
same,"viability, T/C",[27],7.56%
same,"viability, T/C",[28],9.28%
same,"viability, T/C",[29],11.6%
same,"viability, T/C",[30],8.42%
same,"viability, T/C",[31],7.72%
same,"viability, T/C",[32],7.59%
same,"viability, T/C",[33],7.36%
same,"viability, T/C",[34],7.64%
same,"viability, T/C",[35],9.08%
same,"viability, T/C",[36],7.54%
CCC(CC)c1cc(NC2CCC(N)C2)n2nccc2n1 (stereo unspecified) + CCn1c(-c2cc(N3CCN(C)CC3)cnc2C(C)OC)c2c3cc(ccc31)-c1csc(n1)CC(NC(=O)C1CC1C)C(=O)N1CCCC(N1)C(=O)OCC(C)(C)C2,pIC50,second compound 0.000949 µM,5.98
same,pIC50,second compound 0.003 µM,> 7.50
same,pIC50,second compound 0.00949 µM,> 7.50
same,pIC50,second compound 0.03 µM,> 7.50
same,pIC50,second compound 0.0949 µM,> 7.50
same,pIC50,second compound 0.3 µM,> 7.50
same,"viability, T/C",[1],42%
same,"viability, T/C",[2],36.8%
same,"viability, T/C",[3],56.3%
same,"viability, T/C",[4],72.7%
same,"viability, T/C",[5],3.44%
same,"viability, T/C",[6],5.24%
same,"viability, T/C",[7],23.8%
same,"viability, T/C",[8],24.9%
same,"viability, T/C",[9],32.9%
same,"viability, T/C",[10],38.9%
same,"viability, T/C",[11],3.26%
same,"viability, T/C",[12],6.21%
same,"viability, T/C",[13],15.9%
same,"viability, T/C",[14],21.2%
same,"viability, T/C",[15],23.5%
same,"viability, T/C",[16],35.6%
same,"viability, T/C",[17],2.54%
same,"viability, T/C",[18],5.71%
same,"viability, T/C",[19],14.5%
same,"viability, T/C",[20],14.5%
same,"viability, T/C",[21],20.1%
same,"viability, T/C",[22],30.4%
same,"viability, T/C",[23],2.68%
same,"viability, T/C",[24],6.01%
same,"viability, T/C",[25],8.49%
same,"viability, T/C",[26],11.9%
same,"viability, T/C",[27],15.1%
same,"viability, T/C",[28],30.3%
same,"viability, T/C",[29],3.16%
same,"viability, T/C",[30],6.24%
same,"viability, T/C",[31],8.25%
same,"viability, T/C",[32],12.6%
same,"viability, T/C",[33],14.8%
same,"viability, T/C",[34],25.4%
same,"viability, T/C",[35],2.42%
same,"viability, T/C",[36],4.74%
CCN1CCN(Cc2ccc(Nc3ncc(F)c(-c4cc(F)c5nc(C)n(C(C)C)c5c4)n3)nc2)CC1 + CCn1c(-c2cc(N3CCN(C)CC3)cnc2C(C)OC)c2c3cc(ccc31)-c1csc(n1)CC(NC(=O)C1CC1C)C(=O)N1CCCC(N1)C(=O)OCC(C)(C)C2,pIC50,second compound 0.000949 µM,> 8.50
same,pIC50,second compound 0.003 µM,> 8.50
same,pIC50,second compound 0.00949 µM,> 8.50
same,pIC50,second compound 0.03 µM,> 8.50
same,pIC50,second compound 0.0949 µM,> 8.50
same,pIC50,second compound 0.3 µM,> 8.50
same,"viability, T/C","second compound 0.000949 µM, first compound 0.00316 µM",31.4%
same,"viability, T/C","second compound 0.000949 µM, first compound 0.01 µM",27.4%
same,"viability, T/C",[1],31.6%
same,"viability, T/C",[2],22.1%
same,"viability, T/C",[3],28.7%
same,"viability, T/C",[4],27.1%
same,"viability, T/C","second compound 0.003 µM, first compound 0.00316 µM",22.1%
same,"viability, T/C","second compound 0.003 µM, first compound 0.01 µM",21.1%
same,"viability, T/C",[7],16.8%
same,"viability, T/C",[8],15.4%
same,"viability, T/C",[9],18.4%
same,"viability, T/C",[10],22.4%
same,"viability, T/C","second compound 0.00949 µM, first compound 0.00316 µM",16.1%
same,"viability, T/C","second compound 0.00949 µM, first compound 0.01 µM",16.4%
same,"viability, T/C",[13],11%
same,"viability, T/C",[14],15.1%
same,"viability, T/C",[15],14.2%
same,"viability, T/C",[16],18.3%
same,"viability, T/C","second compound 0.03 µM, first compound 0.00316 µM",11.1%
same,"viability, T/C","second compound 0.03 µM, first compound 0.01 µM",11.8%
same,"viability, T/C",[19],9.68%
same,"viability, T/C",[20],13.2%
same,"viability, T/C",[21],13.1%
same,"viability, T/C",[22],16.5%
same,"viability, T/C","second compound 0.0949 µM, first compound 0.00316 µM",8.73%
same,"viability, T/C","second compound 0.0949 µM, first compound 0.01 µM",10.7%
same,"viability, T/C",[25],9.07%
same,"viability, T/C",[26],8.91%
same,"viability, T/C",[27],12.2%
same,"viability, T/C",[28],15.6%
same,"viability, T/C","second compound 0.3 µM, first compound 0.00316 µM",8.74%
same,"viability, T/C","second compound 0.3 µM, first compound 0.01 µM",8.83%
same,"viability, T/C",[31],7.48%
same,"viability, T/C",[32],9.84%
same,"viability, T/C",[33],10.8%
same,"viability, T/C",[34],15.2%
